From patent US8598374B2, “GPR120 receptor agonists and uses thereof” (Metabolex, Inc, priority 2008, dated 2013)

Target: T1, human GPR120 (Homo sapiens, UniProt Q5NUL3)
T1 construct: Flag (DYKDDDDK) (N); host or cells: HEK293 cells co-expressing Gqi5
T1 sequence (Q5NUL3 1-361): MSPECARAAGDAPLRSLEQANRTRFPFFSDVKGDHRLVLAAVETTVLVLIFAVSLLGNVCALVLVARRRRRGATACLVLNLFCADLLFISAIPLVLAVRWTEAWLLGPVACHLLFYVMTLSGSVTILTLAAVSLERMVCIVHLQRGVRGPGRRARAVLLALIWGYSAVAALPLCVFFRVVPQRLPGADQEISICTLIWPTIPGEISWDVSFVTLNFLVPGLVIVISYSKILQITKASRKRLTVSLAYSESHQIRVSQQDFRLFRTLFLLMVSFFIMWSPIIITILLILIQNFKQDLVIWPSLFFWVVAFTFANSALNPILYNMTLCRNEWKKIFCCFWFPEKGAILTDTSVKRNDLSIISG
Assay: Intracellular Ca2+ assay (FLIPR Calcium 4, Flexstation) in human GPR120 stable cell line
Assay type: cell-based
Settings: for % Activity (Ex. 25 Reference Compound): % activity at 2.5 μM compared to the maximal activity of the compound of Example 25 at 2.5 μM, HEK293 cells co-expressing Gqi5; for EC50: human GPR120 stably expressing cells, eight concentrations from 0.00001 to 20 μM
Outline: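 HEK293 cells co-expressing Gqi5 and stably expressing Flag-tagged human GPR120 were seeded at 70,000 cells per well in poly-D-lysine coated 96 well plates and loaded with FLIPR Calcium 4 dye for 50 minutes at 37° C. On a Flexstation, compound-induced fluorescence (excitation 485 nm, emission 525) was recorded for 90 seconds. Percent activity was expressed against a reference agonist's maximal activity at 2.5 μM, set as 100%.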

Compound	% Activity (Ex. 25 Reference Compound) [%]	EC50 [µM]
CC(Cc1cc(F)c(OCc2c(F)c(F)cc3c2OC(C)(C)C3)c(F)c1)C(=O)O (centres unmarked) [Example 42, 3-(4-((5,6-difluoro-2,2-dimethyl-2,3-dihydrobenzofuran-7-yl)methoxy)-3,5-difluorophenyl)-2-methylpropanoic acid]	140.94	–
CC(Cc1ccc(OCc2cc(Cl)cc3c2OC(C)(C)C3)c(CN(C)C)c1)C(=O)O (centres unmarked) [Example 88, 3-(4-((5-chloro-2,2-dimethyl-2,3-dihydrobenzofuran-7-yl)methoxy)-3-((dimethylamino)methyl)phenyl)-2-methylpropanoic acid]	118.92	1 to 10
CC1(C)Cc2c(COc3ccc4c(c3)CC[C@@H]4CC(=O)O)cc(F)cc2O1 [Example 188, (R)-2-(5-((6-fluoro-2,2-dimethyl-2,3-dihydrobenzofuran-4-yl)methoxy)-2,3-dihydro-1H-inden-1-yl)acetic acid]	104.04	–
[2H]C([2H])(C(=O)O)C([2H])([2H])c1ccc(OCc2cc(F)cc3c2OC(C)(C)C3)c(F)c1CC [Example 243, 3-(2-ethyl-3-fluoro-4-((5-fluoro-2,2-dimethyl-2,3-dihydrobenzofuran-7-yl)methoxy)phenyl)-2,2,3,3-tetradeuteriopropanoic acid]	155.23	–
CC1(C)Cc2cc(F)cc(CCc3ccc(OCC(=O)O)cc3)c2O1 [Example 70, 2-(4-(2-(5-fluoro-2,2-dimethyl-2,3-dihydrobenzofuran-7-yl)ethyl)phenoxy)acetic acid]	117.72	–
CC1(C)Cc2cc(F)cc(COc3c(F)cc(CC4CC4C(=O)O)cc3F)c2O1 (centres unmarked) [Example 184, 2-(3,5-difluoro-4-((5-fluoro-2,2-dimethyl-2,3-dihydrobenzofuran-7-yl)methoxy)benzyl)cyclopropanecarboxylic acid]	97.04	–
CC(Cc1ccc(OCc2ccc(C(F)(F)F)c3c2OC(C)(C)C3)c(F)c1)C(=O)O (centres unmarked) [Example 33, 3-(4-((2,2-dimethyl-4-(trifluoromethyl)-2,3-dihydrobenzofuran-7-yl)methoxy)-3-fluorophenyl)-2-methylpropanoic acid]	–	1 to 10
CC(Cc1ccc(OCc2cc(-c3cccc(C(F)(F)F)c3)cc3c2OC(C)(C)C3)cc1)C(=O)O (centres unmarked) [Example 87, 3-(4-((2,2-dimethyl-5-(3-(trifluoromethyl)phenyl)-2,3-dihydrobenzofuran-7-yl)methoxy)phenyl)-2-methylpropanoic acid]	–	1 to 10
CCCc1cc(OCc2cc(Cl)cc3c2OC(C)(C)C3)c(F)cc1CCC(=O)O [Example 73, 3-(4-((5-chloro-2,2-dimethyl-2,3-dihydrobenzofuran-7-yl)methoxy)-5-fluoro-2-propylphenyl)propanoic acid]	114.85	–
CC1(C)Cc2cc(F)cc(COc3ccc4c(c3)CC[C@@H]4CC(=O)O)c2O1 [Example 178, (R)-2-(5-((5-fluoro-2,2-dimethyl-2,3-dihydrobenzofuran-7-yl)methoxy)-2,3-dihydro-1H-inden-1-yl)acetic acid]	106	–
CC1(C)Cc2cc(F)cc(COc3cc(Cl)c(CCC(=O)O)c(Cl)c3)c2O1 [Example 197, 3-(2,6-dichloro-4-((5-fluoro-2,2-dimethyl-2,3-dihydrobenzofuran-7-yl)methoxy)phenyl)propanoic acid]	151.44	–
CC(C)Oc1ccc(Cl)cc1COc1cc2c(cc1F)C(CC(=O)O)CC2 (centres unmarked) [Example 257, 2-(5-((5-chloro-2-isopropoxybenzyl)oxy)-6-fluoro-2,3-dihydro-1H-inden-1-yl)acetic acid]	124.62	–
CC1(C)Cc2c(ccc(F)c2COc2c(F)cc(C3CC3C(=O)O)cc2F)O1 (centres unmarked) [Example 99, 2-(3,5-difluoro-4-((5-fluoro-2,2-dimethyl-2,3-dihydrobenzofuran-4-yl)methoxy)phenyl)cyclopropanecarboxylic acid]	101.53	–
CC1(C)Cc2cc(Cl)cc(COc3ccc(CCC(=O)O)c(F)c3)c2O1 [Example 53, 3-(4-((5-chloro-2,2-dimethyl-2,3-dihydrobenzofuran-7-yl)methoxy)-2-fluorophenyl)-propanoic acid]	143.19	1 to 10
CC1(C)Cc2cc(Cl)cc(CNc3ccc(CCC(=O)O)cc3)c2O1 [Example 127]	152.93	–
CC(C)Oc1cc(OCc2cc(Cl)cc3c2OC(C)(C)C3)ccc1CCC(=O)O [Example 116, 3-(4-((5-chloro-2,2-dimethyl-2,3-dihydrobenzofuran-7-yl)methoxy)-2-isopropoxyphenyl)propanoic acid]	145.6	–
CC1(C)Cc2cc(F)cc(COc3ccc(SCC(=O)O)cc3)c2O1 [Example 58, 2-((4-((5-fluoro-2,2-dimethyl-2,3-dihydrobenzofuran-7-yl)methoxy)phenyl)thio)-acetic acid]	–	1 to 10
CC(Cc1ccc(OCc2ccc(F)c3c2OC(C)(C)C3)cc1)C(=O)O (centres unmarked) [Example 30, 3-(4-((4-fluoro-2,2-dimethyl-2,3-dihydrobenzofuran-7-yl)methoxy)phenyl)-2-methylpropanoic acid]	–	1 to 10
COc1cc(CCC(=O)O)ccc1OCc1cc(F)cc2c1OC(C)(C)C2 [Example 173, 3-(4-((5-fluoro-2,2-dimethyl-2,3-dihydrobenzofuran-7-yl)methoxy)-3-methoxyphenyl)propanoic acid]	159.06	–
CC(Cc1ccc(NCc2cc(F)cc3c2OC(C)(C)C3)cc1)C(=O)O (centres unmarked) [Example 67]	141.82	1 to 10
CC1(C)Cc2cc(Cl)cc(COc3ccc(CCC(=O)O)c(Cl)c3)c2O1 [Example 52, 3-(2-chloro-4-((5-chloro-2,2-dimethyl-2,3-dihydrobenzofuran-7-yl)methoxy)phenyl)-propanoic acid]	–	1 to 10
CCc1c(CCC(=O)O)ccc(OCc2cc(F)cc3c2OC(C)(C)C3)c1F [Example 216, 3-(2-ethyl-3-fluoro-4-((5-fluoro-2,2-dimethyl-2,3-dihydrobenzofuran-7-yl)methoxy)phenyl)propanoic acid]	144.23	–
CC(C)Oc1ccc(Cl)cc1COc1ccc2c(c1)CCC2CC(=O)O (centres unmarked) [Example 258, 2-(5-((5-chloro-2-isopropoxybenzyl)oxy)-2,3-dihydro-1H-inden-1-yl)acetic acid]	139.95	–
COc1cc(CCC(=O)O)c(Br)cc1OCc1cc(Cl)cc2c1OC(C)(C)C2 [Example 57, 3-(2-bromo-4-((5-chloro-2,2-dimethyl-2,3-dihydrobenzofuran-7-yl)methoxy)-5-methoxyphenyl)propanoic acid]	–	1 to 10
CC(C)C(CC(=O)O)c1ccc(OCc2cc(Cl)cc3c2OC(C)(C)C3)cc1 (centres unmarked) [Example 266, 3-(4-((5-chloro-2,2-dimethyl-2,3-dihydrobenzofuran-7-yl)methoxy)phenyl)-4-methylpentanoic acid]	42.73	–
[2H]C([2H])(Oc1ccc(CC(C)C(=O)O)cc1F)c1cc(F)cc2c1OC(C)(C)C2 (centres unmarked) [Example 230, 3-(4-(dideuterio(5-fluoro-2,2-dimethyl-2,3-dihydrobenzofuran-7-yl)methoxy)-3-fluorophenyl)-2-methylpropanoic acid]	86.25	–
